Test [1] concerns the target T1, human vasopressin V1a receptor (Homo sapiens, UniProt P37288). The test can be described thus: Functional assay on human vasopressin V1a receptor expressing cell line (intracellular Ca2+ fluorescence). The format is cell-based. To be noted: 1321N1 cells, (Arg8)-vasopressin at EC80; read-out: IC50 (nM) on hV1a cell line.
The target of test [2] is T1, human vasopressin V1a receptor. The test can be described thus: Human vasopressin V1a receptor binding assay. The settings on record: 1321N1 cell membranes, [3H]vasopressin; read-out: Ki (nM) on hV1a cell line. Summed up:
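Ki values come from IC50 via Cheng-Prusoff (KD from prior Scatchard), averaged over at least two independent runs. Human V1a membranes were incubated with radioligand 60 minutes at 27° C., bound ligand collected by filtration; (Arg^8)-vasopressin at 1.2×10^−6 M defined non-specific binding.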

Each structure is given as a SMILES string.

T1 sequence (P37288 whole entry): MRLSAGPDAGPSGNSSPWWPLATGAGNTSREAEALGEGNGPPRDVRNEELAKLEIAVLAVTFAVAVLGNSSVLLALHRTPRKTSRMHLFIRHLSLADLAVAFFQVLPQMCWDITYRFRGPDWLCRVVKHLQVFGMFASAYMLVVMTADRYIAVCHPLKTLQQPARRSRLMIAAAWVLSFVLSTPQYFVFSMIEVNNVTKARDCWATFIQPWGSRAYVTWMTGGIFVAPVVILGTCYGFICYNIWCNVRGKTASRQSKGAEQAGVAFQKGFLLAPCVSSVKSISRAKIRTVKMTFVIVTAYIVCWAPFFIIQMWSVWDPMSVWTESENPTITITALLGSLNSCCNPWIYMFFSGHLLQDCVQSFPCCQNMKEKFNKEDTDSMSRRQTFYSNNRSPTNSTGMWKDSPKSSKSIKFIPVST

Consider `CC(C)(C)OC(=O)NC1Cc2cc(F)ccc2-n2c(nnc2[C@H]2CC[C@H](Oc3ccccn3)CC2)C1` (stereo partly drawn) [Example 143, Tert-butyl {8-fluoro-1-[trans-4-(pyridin-2-yloxy)cyclohexyl]-5,6-dihydro-4H-[1,2,4]triazolo[4,3-a][1]benzazepin-5-yl}carbamate], for which, in test [1], the IC50 was 156 nM. Moreover, the Ki in test [2] came out at 5 nM.

For the compound `OC1Cc2cc(Cl)ccc2-n2c(nnc2N2CCC(c3ncccc3Cl)CC2)C1` (stereo not drawn) [Example 173, 8-chloro-1-[4-(3-chloropyridin-2-yl)piperidin-1-yl]-5,6-dihydro-4H-[1,2,4]triazolo[4,3-a][1]benzazepin-5-ol], the IC50 in test [1] is 11 nM. Besides, the Ki in test [2] was 1.6 nM.

As for `O=C(N[C@@H]1Cc2cc(Cl)ccc2-n2c(nnc2[C@H]2CC[C@H](Oc3ccccn3)CC2)C1)C1CCC(F)(F)CC1` [Example 221, N-{(5R)-8-chloro-1-[trans-4-(pyridin-2-yloxy)cyclohexyl]-5,6-dihydro-4H-[1,2,4]triazolo[4,3-a][1]benzazepin-5-yl}-4,4-difluorocyclohexanecarboxamide], the IC50 in test [1] is 9.8 nM. Also, the Ki in test [2] is 0.9 nM.

For the compound `Clc1ccc2c(c1)CC1(Cc3nnc(C4CN(c5ncccn5)C4)n3-2)OCCO1` [Example 79], the IC50 in test [1] is 1860 nM. Moreover, the Ki in test [2] is 71 nM.

In the case of `CCC[C@]1(OCC)CC[C@H](c2nnc3n2-c2ccc(Cl)cc2CC2(C3)OCCO2)CC1` [Example 238, 8′-chloro-1′-(trans-4-ethoxy-4-propylcyclohexyl)-4′H,6′-spiro[1,3-dioxolane-2,5′-[1,2,4]triazolo[4,3-a][1]benzazepine]], the IC50 in test [1] is 8.2 nM. Further, the Ki in test [2] came to 0.7 nM.

Consider `NC1Cc2cc(Cl)ccc2-n2c(nnc2[C@H]2CC[C@H](C(F)(F)F)CC2)C1` (stereo partly drawn) [Example 43], for which the IC50 in test [1] came to 210 nM. Moreover, the Ki in test [2] worked out at 88 nM.

Regarding `CC(C)(C)OC(=O)NC1Cc2cc(C(F)(F)F)ccc2-n2c(nnc2[C@H]2CC[C@H](Oc3ccccn3)CC2)C1` (stereo partly drawn) [Example 33, Tert-butyl {1-[trans-4-(pyridin-2-yloxy)cyclohexyl]-8-(trifluoromethyl)-5,6-dihydro-4H-[1,2,4]triazolo[4,3-a][1]benzazepin-5-yl}carbamate], the IC50 in test [1] was determined as 480 nM. Besides, the Ki in test [2] came out at 111 nM.

Regarding `CC(C)NC1Cc2cc(Br)ccc2-n2c(nnc2[C@H]2CC[C@H](Oc3ccccn3)CC2)C1` (stereo partly drawn) [Example 40, 8-bromo-N-(propan-2-yl)-1-[trans-4-(pyridin-2-yloxy)cyclohexyl]-5,6-dihydro-4H-[1,2,4]triazolo[4,3-a][1]benzazepine-5-amine], in test [1], the IC50 was found to be 8.4 nM. In addition, the Ki in test [2] worked out at 0.9 nM.

Regarding `CC(C)(C)C(=O)N[C@@H]1Cc2cc(Cl)ccc2-n2c(nnc2[C@H]2CC[C@H](Oc3ccccn3)CC2)C1` [Example 123, N-{(5R)-8-chloro-1-[trans-4-(pyridin-2-yloxy)cyclohexyl]-5,6-dihydro-4H-[2,4]triazolo[4,3-a][1]benzazepin-5-yl}-2,2-dimethylpropanamide], the IC50 in test [1] was 6.3 nM. Besides, the Ki in test [2] amounted to 2.1 nM.

Turning to `CCOC1Cc2cc(Cl)ccc2-n2c(nnc2[C@H]2CC[C@H](Oc3ccccn3)CC2)C1` (stereo partly drawn) [Example 131, 8-chloro-5-ethoxy-1-[trans-4-(pyridin-2-yloxy)cyclohexyl]-5,6-dihydro-4H-[1,2,4]triazolo[4,3-a][1]benzazepine], in test [1], the IC50 stood at 0.7 nM. Moreover, the inhibition constant (Ki) in test [2] was determined as 0.3 nM.

On to `COC1Cc2cc(Cl)ccc2-n2c(nnc2[C@H]2CC[C@H](N3CCCC3=O)CC2)C1` (stereo partly drawn) [Example 219, 1-[trans-4-(8-chloro-5-methoxy-5,6-dihydro-4H-[1,2,4]triazolo[4,3-a][1]benzazepin-1-yl)cyclohexyl]pyrrolidin-2-one], for which the IC50 in test [1] came to 22 nM. In test [2], the inhibition constant Ki stood at 0.2 nM.

Consider `CC1(C(=O)N[C@H]2Cc3cc(Cl)ccc3-n3c(nnc3[C@H]3CC[C@H](Oc4ccccn4)CC3)C2)COC1` [Example 225], for which the IC50 in test [1] turned out to be 854 nM. For the same compound, in test [2], the Ki came to 48 nM.

Consider `O=C(N[C@@H]1Cc2cc(Cl)ccc2-n2c(nnc2[C@H]2CC[C@H](Oc3ccccn3)CC2)C1)C1CCC1` [Example 125, N-{(5R)-8-chloro-1-[trans-4-(pyridin-2-yloxy)cyclohexyl]-5,6-dihydro-4H-[1,2,4]triazolo[4,3-a][1]benzazepin-5-yl}cyclobutanecarboxamide], for which the IC50 in test [1] amounted to 2.3 nM. Moreover, in test [2], the Ki was found to be 0.8 nM.

As to `CN(C)CCC(=O)N[C@H]1Cc2cc(Cl)ccc2-n2c(nnc2[C@H]2CC[C@H](Oc3ccccn3)CC2)C1` [Example 153, N-{(5S)-8-chloro-1-[trans-4-(pyridin-2-yloxy)cyclohexyl]-5,6-dihydro-4H-[1,2,4]triazolo[4,3-a][1]benzazepin-5-yl}-N^3,N^3-dimethyl-β-alaninamide], in test [1], the IC50 turned out to be 307 nM. Further, the Ki in test [2] was found to be 20.5 nM.

Regarding `Clc1ccc2c(c1)CC1(Cc3nnc([C@H]4CC[C@H](Oc5ccccn5)CC4)n3-2)OCCCCO1` [Example 106, 8′-chloro-1′-[trans-4-(pyridin-2-yloxy)cyclohexyl]-4°,6′-spiro[1,3-dioxepane-2,5′-[1,2,4]triazolo[4,3-a][1]benzazepine]], the IC50 in test [1] was found to be 1.8 nM. Moreover, the Ki in test [2] was 0.1 nM.

As for `NC1Cc2cc(F)ccc2-n2c(nnc2[C@H]2CC[C@H](Oc3ccccn3)CC2)C1` (stereo partly drawn) [Example 145, 8-fluoro-1-[trans-4-(pyridin-2-yloxy)cyclohexyl]-5,6-dihydro-4H-[1,2,4]triazolo[4,3-a][1]benzazepin-5-amine], the IC50 in test [1] was 47 nM. Also, the Ki in test [2] amounted to 12.7 nM.

`CC(C)OC1Cc2cc(Cl)ccc2-n2c(nnc2[C@H]2CC[C@H](Oc3ccccn3)CC2)C1` (stereo partly drawn) [Example 105, 8-chloro-5-(propan-2-yloxy)-1-[trans-4-(pyridin-2-yloxy)cyclohexyl]-5,6-dihydro-4H-[1,2,4]triazolo[4,3-a][1]benzazepine]: the IC50 in test [1] came to 1.4 nM. In addition, the Ki in test [2] came to 0.3 nM.

As for `O=C1Cc2cc(Br)ccc2-n2c(nnc2[C@H]2CC[C@H](C(=O)N3CCCCC3)CC2)C1` [Example 87, 8-bromo-1-[trans-4-(piperidin-1-ylcarbonyl)cyclohexyl]-4H-[1,2,4]triazolo[4,3-a][1]benzazepin-5(6H)-one], the IC50 in test [1] came to 57 nM. For the same compound, in test [2], the inhibitory constant (Ki) was found to be 2.5 nM.

Regarding `CO[C@]1(C(F)(F)F)CC[C@@H](c2nnc3n2-c2ccc(Cl)cc2CC2(C3)OCCO2)CC1` [Example 235, 8′-chloro-1′-[trans-4-methoxy-4-(trifluoromethyl)cyclohexyl]-4′H,6′H-spiro[1,3-dioxolane-2,5′-[1,2,4]triazolo[4,3-a][1]benzazepine]], in test [1], the IC50 is 22 nM. Further, in test [2], the Ki stood at 0.3 nM.

Turning to `CC(C)(C)OC(=O)NC1Cc2cc(Cl)ccc2-n2c(nnc2[C@H]2CC[C@H](Oc3ccccn3)CC2)C1` (stereo partly drawn) [Example 5, Tert-butyl {8-chloro-1-[trans-4-(pyridin-2-yloxy)cyclohexyl]-5,6-dihydro-4H-[1,2,4]triazolo[4,3-a][1]benzazepine-5-yl}carbamate], the half-maximal inhibitory concentration (IC50) in test [1] is 17 nM. For the same compound, in test [2], the Ki came to 3.8 nM.

Turning to `FC(F)(F)c1ccc2c(c1)CC(OCC1CC1)Cc1nnc([C@H]3CC[C@H](Oc4ccccn4)CC3)n1-2` (stereo partly drawn) [Example 51, 5-(cyclopropylmethoxy)-1-[trans-4-(pyridin-2-yloxy)cyclohexyl]-8-(trifluoromethyl)-5,6-dihydro-4H-[1,2,4]triazolo[4,3-a][1]benzazepine], in test [1], the 50% inhibitory concentration (IC50) turned out to be 55 nM. For the same compound, the Ki in test [2] turned out to be 7.6 nM.

Values taken from US11298363B2, “Triazolobenzazepines as vasopressin V1a receptor antagonists” (RICHTER GEDEON NYRT., priority 2017, dated 2022).
